From PubChem BioAssay AID248 (DTP/NCI, 2004)
“And” between values parts separate entries of the source, which are not always exact repeats. Equal entries are not always repeated. Toxic doses and inconclusive results are not listed. Rule as the data show it: active = T/C of 150% or more; inactive = T/C below 125%.

Test system: L1210 leukemia ip in BDF1 mice, survival T/C
Assay: NCI In Vivo Anticancer Drug Screen. Data for tumor model L1210 Leukemia (intraperitoneal) in B6D2F1 (BDF1) mice
Details: endpoint: mean survival time, higher = longer survival
How it was run: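 Each compound was tested against a transplantable tumor grown in mice. The endpoint was survival, with treated animals benchmarked against vehicle controls as a simple ratio.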

[1] = dose: 100.0 mg/kg/injection, schedule: Q01DX009 (ip), vehicle: saline with Tween-80
[2] = dose: 100.0 mg/kg/injection, schedule: Q04DX003 (ip), vehicle: saline with Tween-80
[3] = dose: 200.0 mg/kg/injection, schedule: Q04DX003 (ip), vehicle: saline with Tween-80
[4] = dose: 100.0 mg/kg/injection, schedule: Q01DX001 (ip), vehicle: saline
[5] = dose: 200.0 mg/kg/injection, schedule: Q01DX001 (ip), vehicle: saline
[6] = dose: 400.0 mg/kg/injection, schedule: Q01DX001 (ip), vehicle: saline
[7] = dose: 100.0 mg/kg/injection, schedule: Q01DX001 (ip), vehicle: Klucel (hydroxypropylcellulose) (HPC)
[8] = dose: 200.0 mg/kg/injection, schedule: Q01DX001 (ip), vehicle: Klucel (hydroxypropylcellulose) (HPC)
[9] = dose: 400.0 mg/kg/injection, schedule: Q01DX001 (ip), vehicle: Klucel (hydroxypropylcellulose) (HPC)
[10] = dose: 50.0 mg/kg/injection, schedule: Q01DX009 (ip), vehicle: Klucel (hydroxypropylcellulose) (HPC)
[11] = dose: 100.0 mg/kg/injection, schedule: Q01DX009 (ip), vehicle: Klucel (hydroxypropylcellulose) (HPC)
[12] = dose: 200.0 mg/kg/injection, schedule: Q01DX009 (ip), vehicle: Klucel (hydroxypropylcellulose) (HPC)
[13] = dose: 200.0 mg/kg/injection, schedule: Q01DX009 (ip), vehicle: saline with Tween-80
[14] = dose: 400.0 mg/kg/injection, schedule: Q01DX009 (ip), vehicle: saline with Tween-80
[15] = dose: 400.0 mg/kg/injection, schedule: Q04DX003 (ip), vehicle: saline with Tween-80

Measured: T/C

O=C(CCCCn1cnc2c(=S)nc[nH]c21)Nc1ccc(C(=O)O)cc1
inactive: dose: 50.0 mg/kg/injection, schedule: Q01DX Z (ip), vehicle: carboxymethylcellulose (CMC) 101 % of control | dose: 100.0 mg/kg/injection, schedule: Q01DX Z (ip), vehicle: carboxymethylcellulose (CMC) 95 % of control | dose: 200.0 mg/kg/injection, schedule: Q01DX Z (ip), vehicle: carboxymethylcellulose (CMC) 104 % of control | dose: 400.0 mg/kg/injection, schedule: Q01DX Z (ip), vehicle: carboxymethylcellulose (CMC) 96 % of control

CCC1N=C(N)N=C(N)N1c1ccc(Cl)cc1 (stereo not given)
inactive: dose: 75.0 mg/kg/injection, schedule: Q01DX001 (ip), vehicle: saline 100 % of control | dose: 150.0 mg/kg/injection, schedule: Q01DX001 (ip), vehicle: saline 98 % of control

O/N=C1\c2ccccc2-c2cccc(I)c21
inactive: dose: 100.0 mg/kg/injection, schedule: Q01DX001 (ip), vehicle: carboxymethylcellulose (CMC) 92 % of control | dose: 200.0 mg/kg/injection, schedule: Q01DX001 (ip), vehicle: carboxymethylcellulose (CMC) 92 % of control | dose: 400.0 mg/kg/injection, schedule: Q01DX001 (ip), vehicle: carboxymethylcellulose (CMC) 94 % of control

Cc1ccc(S(=O)(=O)OCC2CO2)cc1 (stereo not given)
inactive: dose: 100.0 mg/kg/injection, schedule: Q01DX009 (ip), vehicle: acetone 92 % of control | dose: 100.0 mg/kg/injection, schedule: Q04DX003 (ip), vehicle: acetone 92 % of control | dose: 200.0 mg/kg/injection, schedule: Q04DX003 (ip), vehicle: acetone 95 % of control | dose: 400.0 mg/kg/injection, schedule: Q01DX009 (ip), vehicle: acetone 87 % of control | dose: 400.0 mg/kg/injection, schedule: Q04DX003 (ip), vehicle: acetone 92 % of control

CCN(CC)CCNCc1ccc(Cl)cc1
inactive: dose: 25.0 mg/kg/injection, schedule: Q04DX003 (ip), vehicle: Klucel (hydroxypropylcellulose) (HPC) 92 % of control | dose: 50.0 mg/kg/injection, schedule: Q04DX003 (ip), vehicle: Klucel (hydroxypropylcellulose) (HPC) 96 % of control | dose: 75.0 mg/kg/injection, schedule: Q04DX003 (ip), vehicle: Klucel (hydroxypropylcellulose) (HPC) 96 % of control and 103 % of control

COc1ccc(CNCC(=O)OCc2ccccc2)cc1
inactive: dose: 50.0 mg/kg/injection, schedule: Q01DX009 (ip), vehicle: saline with Tween-80 91 % of control | [1] 100 % of control | [2] 102 % of control | [3] 101 % of control

BrC1C2CCC(C2)C1Br (stereo not given)
inactive: [4] 102 % of control | [5] 100 % of control | [6] 100 % of control

O=C(Nc1ccccc1)OC1C=CC2CCC1C2 (stereo not given)
inactive: [4] 90 % of control | [5] 87 % of control | [6] 87 % of control

N#CC(CCCc1cccc(N2CN=C(N)N=C2N)c1)c1ccccc1 (stereo not given)
inactive: dose: 50.0 mg/kg/injection, schedule: Q01DX001 (ip), vehicle: saline 96 % of control

Nc1c(Cl)ncnc1NC1COC(CO)C1O (stereo not given)
inactive: [7] 100 % of control | [8] 110 % of control | [9] 100 % of control

Clc1nc(Nc2ccccc2)c2ccccc2n1
inactive: [10] 111 % of control | [11] 95 % of control | [12] 107 % of control

CNC(=O)CS(=O)(=O)c1ccc(C)cc1
inactive: [4] 97 % of control | [5] 95 % of control | [6] 93 % of control

O=C(c1ccccc1)C1OC(=O)C1c1ccccc1 (stereo not given)
inactive: [7] 97 % of control | dose: 100.0 mg/kg/injection, schedule: Q04DX003 (ip), vehicle: Klucel (hydroxypropylcellulose) (HPC) 101 % of control | [8] 92 % of control | dose: 200.0 mg/kg/injection, schedule: Q04DX003 (ip), vehicle: Klucel (hydroxypropylcellulose) (HPC) 101 % of control | [9] 103 % of control | dose: 400.0 mg/kg/injection, schedule: Q04DX003 (ip), vehicle: Klucel (hydroxypropylcellulose) (HPC) 97 % of control

CCOC(=O)CCSC(C)(C)C(=O)OCC
inactive: [11] 97 % of control | [12] 101 % of control | dose: 400.0 mg/kg/injection, schedule: Q01DX009 (ip), vehicle: Klucel (hydroxypropylcellulose) (HPC) 100 % of control

C[N+](C)(C)c1ccc(N=C=S)cc1
inactive: dose: 12.5 mg/kg/injection, schedule: Q01DX009 (ip), vehicle: Klucel (hydroxypropylcellulose) (HPC) 94 % of control | dose: 25.0 mg/kg/injection, schedule: Q01DX009 (ip), vehicle: Klucel (hydroxypropylcellulose) (HPC) 105 % of control | [10] 103 % of control

COc1cc(C(O)C(Cl)(Cl)Cl)ccc1O (stereo not given)
inactive: dose: 100.0 mg/kg/injection, schedule: Q04DX003 (ip), vehicle: other 105 % of control | dose: 200.0 mg/kg/injection, schedule: Q04DX003 (ip), vehicle: other 105 % of control | dose: 400.0 mg/kg/injection, schedule: Q04DX003 (ip), vehicle: other 102 % of control

CCC[CH2][Pb]([CH2]CCC)([CH2]CCC)[O]C(C)=O
inactive: [4] 101 % of control | [5] 95 % of control

COc1ccc(OC)c(CCC(O)CCc2cc(OC)ccc2OC)c1
inactive: [1] 99 % of control | [2] 96 % of control | [13] 90 % of control | [3] 98 % of control | [14] 94 % of control | [15] 94 % of control

Oc1ccc2ccccc2c1N=Nc1ccccn1
inactive: dose: 25.0 mg/kg/injection, schedule: Q04DX002 (ip), vehicle: saline with Tween-80 101 % of control | dose: 50.0 mg/kg/injection, schedule: Q04DX002 (ip), vehicle: saline with Tween-80 98 % of control | dose: 100.0 mg/kg/injection, schedule: Q04DX002 (ip), vehicle: saline with Tween-80 95 % of control

Cc1cccc(Sc2cccc3c2C(C)(O)c2c(Sc4cccc(C)c4)cccc2C3(C)O)c1 (stereo not given)
inactive: [2] 96 % of control | [3] 95 % of control | [15] 96 % of control

CCC(C)C(C(=O)OCCC[N+]1(C)CCCCC1)c1ccccc1 (stereo not given)
inactive: dose: 12.5 mg/kg/injection, schedule: Q01DX009 (ip), vehicle: saline 96 % of control | dose: 12.5 mg/kg/injection, schedule: Q04DX003 (ip), vehicle: saline 96 % of control | dose: 25.0 mg/kg/injection, schedule: Q01DX009 (ip), vehicle: saline 100 % of control | dose: 25.0 mg/kg/injection, schedule: Q04DX003 (ip), vehicle: saline 96 % of control | dose: 50.0 mg/kg/injection, schedule: Q01DX009 (ip), vehicle: saline 94 % of control | dose: 50.0 mg/kg/injection, schedule: Q04DX003 (ip), vehicle: saline 94 % of control

Nc1c(-c2ncc[nH]2)ncn1C1OC(CO)C(O)C1O (stereo not given)
inactive: dose: 100.0 mg/kg/injection, schedule: Q01DX005 (ip), vehicle: saline 94 % of control | dose: 200.0 mg/kg/injection, schedule: Q01DX005 (ip), vehicle: saline 93 % of control

CC(=O)OC1C(C)C2C=CC(=O)C2(C)CC2C1OC(=O)C2(O)CO (stereo not given)
inactive: dose: 25.0 mg/kg/injection, schedule: Q04DX002 (ip), vehicle: saline 116 % of control | dose: 50.0 mg/kg/injection, schedule: Q04DX002 (ip), vehicle: saline 113 % of control | dose: 100.0 mg/kg/injection, schedule: Q04DX002 (ip), vehicle: saline 95 % of control

COc1ccc(OC)c(NC(=S)N/N=C/c2cccc3ccccc23)c1
inactive: [1] 100 % of control | [13] 95 % of control | [14] 100 % of control
